From US20130023553A1, “PEGYLATED OPIOIDS WITH LOW POTENTIAL FOR ABUSE AND SIDE EFFECTS” (Nektar Therapeutics, priority 2010, published 2013)
Like-named read-outs stand apart in the source and are kept apart here.

Legend:
[1] = Pharmacokinetics following oral (PO) dosing; format: in vivo, Sprague-Dawley rats; settings: male, Sprague-Dawley, rat, plasma; for Cmax: read-out: Cmax; for Tmax: read-out: Tmax (converted)
Excerpt: (§1) There were 3 rats/group. All animals were food fasted overnight. […] The predose sample was collected from the JVC.
(§2) Following the last collection point, the animals were euthanized.

[2] = Pharmacokinetics following intravenous (IV) dosing; format: in vivo, Sprague-Dawley rats; settings: male, Sprague-Dawley, rat, plasma; for Cmax: read-out: Cmax; for Vd: read-out: Vss
Excerpt: as §1, §2

[3] = target: T1, human mu opioid receptor (Homo sapiens, UniProt P35372); test: cell-based; settings: for Emax: maximal response at the highest tested concentration, read-out: % max effect, mu opioid receptor; for EC50: read-out: EC50, mu opioid receptor
T1 construct: expressed in transfected cells; host or cells: CHO cells
Protocol: (§3) Studies were conducted in CHO cells heterologously expressing the cloned human mu, kappa or delta opioid receptors. cAMP was measured using a cAMP HiRange homogenous time-resolved fluorescence assay (HTRF Assay), that is based on a competitive immunoassay principle (Cisbio, Cat.#62AM6PEC).
(§4) Briefly, suspensions of cells expressing either the mu, kappa or delta opioid receptors were prepared in buffer containing 0.5 mM isobutyl-methyl xanthine (IBMX). […] EC50 values were calculated for each compound from a sigmoidal dose-response plot of concentrations versus maximum response. To determine if the compounds behaved as full or partial agonists in the system, the maximal response at the highest tested concentrations of compounds were compared to that produced by a known full agonist.

[4] = test system: squirrel monkeys; test: Monkey self-administration model of addictive potential; settings: 0.03 mg/kg/injection
Excerpt: Dose-related effects of the test articles were examined, using two or more doses of each drug in 3-4 subjects in a double alternation schedule in which each unit dose (or vehicle) was used in two consecutive sessions before a change in unit dose.
Addictive potential of opioid compounds and opioid conjugates of the invention may be assessed through the use of squirrel monkey models as known in the art.
Under the double alternation schedule, each unit dose (or vehicle) was available for intravenous self-administration for two consecutive sessions before the unit dose was changed. In this way, it was possible to establish the function relating unit dose of intravenous drug to (i) number of injections per session, and/or (ii) the percentage of total responses that occur on the lever leading to self-administration (injection-lever responding, % ILR). Unit doses of drugs ranged from 0.01 to 3.2 mg/kg/injection.

[5] = target: T1, human mu opioid receptor; test: biochemical; format: binding; settings: CHO-K1 membranes, [3H]DAMGO 6 nM; read-out: Ki, Mu opioid receptor
Protocol: (§5) Radioligand displacement was measured using scintillation proximity assays (SPA).
(§6) Briefly, serial dilutions of the test compounds were placed in a 96-well plate to which were added SPA beads, membrane and radioligand. The assay conditions for each opioid receptor subtype are described in Table 10 below. The plates were incubated for 8 hours-overnight at room temperature, spun at 1000 rpm to pellet the SPA beads, and radioactivity was measured using the TopCount® microplate Scintillation counter. Specific binding at each concentration of test compound was calculated by subtracting the non-specific binding measured in the presence of excess cold ligand. IC50 values were obtained by non-linear regression of specific binding versus concentration curves and Ki values were calculated using Kd values that were experimentally pre-determined for each lot of membrane preparations.

[6] = test system: Male CD-1 mice; test: Assessment of CNS side effects in mice (Straub tail, muscle rigidity, pinna reflex)
Excerpt: The objective of this study was to provide an approximation of the side effect profile of various oligomeric conjugates for comparison to the parent compounds by measuring various gross behavioral and physiological signs following administration of compound.
Additional evaluations included muscle rigidity and pinna reflex.
Male CD-1 mice from Charles River Laboratories, Raleigh, N.C., weighing from 16-18 grams were maintained on a regular light/dark cycle (lights on 0600-1800) with ad libitum food and water for 1 week before commencement of testing. N=2 per treatment condition, i.e., separate mice for each dose of each test article, injection was performed via a 25-gauge ⅝-inch needle on a 1-mL tuberculin syringe for the s.c. route and a 22-gauge stainless steel mouse feeding tube for the p.o. route (Becton, Dickinson & Co., Franklin Lakes, N.J.). Each treatment condition was divided about evenly between two observers. […] Test article was administered (s.c. or p.o., and the mouse was placed immediately in the observation chamber). One-half, 1, 2, and 3 hours later, the animal was observed undisturbed for gross signs such as locomotor ataxia, tremor, hyperactivity, hypoactivity, convulsions, hindlimb splay, and Straub tail, and then removed and assessed for muscle tone (normal, rigid, flaccid), pinna reflex (presence or absence), righting reflex (intact or lost), and placing (whether or not the forepaws are extended when the mouse is placed near a surface).
Each of the tables show the number of animals responding at each dose, where N=2. […] A bolded value indicates the lowest dose at which a response was detected.

[7] = target: T2, human kappa opioid receptor (Homo sapiens, UniProt P41145); test: cell-based; settings: maximal response at the highest tested concentration; read-out: % max effect, kappa opioid receptor
T2 construct: expressed in transfected cells; host or cells: CHO cells
Protocol: as §3, §4

[8] = target: T2, human kappa opioid receptor; test: biochemical; format: binding
Protocol: as §5, §6

[9] = hydroxycodone series, 5.0 mg/kg oral, Mean ± SD
[10] = hydroxycodone series, 1 mg/kg IV, Mean ± SD

T2 sequence (P41145 whole entry): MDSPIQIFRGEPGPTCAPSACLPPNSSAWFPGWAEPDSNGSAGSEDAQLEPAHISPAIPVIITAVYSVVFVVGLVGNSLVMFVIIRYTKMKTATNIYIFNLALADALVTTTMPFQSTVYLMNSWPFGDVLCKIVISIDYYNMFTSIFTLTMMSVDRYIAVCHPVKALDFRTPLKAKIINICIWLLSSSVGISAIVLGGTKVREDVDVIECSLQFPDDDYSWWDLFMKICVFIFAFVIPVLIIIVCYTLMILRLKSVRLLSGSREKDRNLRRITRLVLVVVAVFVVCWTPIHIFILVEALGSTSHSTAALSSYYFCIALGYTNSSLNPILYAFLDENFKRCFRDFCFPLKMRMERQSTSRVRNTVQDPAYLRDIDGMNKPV
T1 sequence (P35372 whole entry): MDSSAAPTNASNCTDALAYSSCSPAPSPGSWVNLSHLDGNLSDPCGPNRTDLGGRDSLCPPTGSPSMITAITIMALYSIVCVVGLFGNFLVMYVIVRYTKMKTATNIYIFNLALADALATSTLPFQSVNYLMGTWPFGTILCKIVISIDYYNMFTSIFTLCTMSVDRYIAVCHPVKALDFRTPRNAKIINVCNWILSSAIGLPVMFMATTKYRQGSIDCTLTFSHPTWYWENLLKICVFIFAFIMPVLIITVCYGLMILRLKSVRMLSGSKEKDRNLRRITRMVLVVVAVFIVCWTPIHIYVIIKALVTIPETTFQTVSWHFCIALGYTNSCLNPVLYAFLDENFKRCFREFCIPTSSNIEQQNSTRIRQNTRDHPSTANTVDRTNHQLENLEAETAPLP

Work on `COCCOCCOCCOCCOCCOCCOCCOC1CCC2(O)C3Cc4ccc(OC)c5c4C2(CCN3C)C1O5` (stereo not drawn) [α-6-mPEG7-O-hydroxycodone, α-6-mPEG7-O-oxycodone] yielded a bioavailability ([1]; po, 5 mg/kg) of 28.1%, an AUC [1, 9] of 340 ng·h/mL and an MRT last [1, 9] of 2.97 h. It also gave an AUC(0-inf) ([1]; hydroxycodone series, 5.0 mg/kg oral, Mean ± SD, * n = 2) of 370 ng·h/mL, a half-life ([1]; hydroxycodone series, 5.0 mg/kg oral, Mean ± SD, * n = 2, read-out: T1/2(z)) of 1.92 ± 0.487 h and a Cmax [1, 9] of 114 ± 38 ng/mL. For the same compound, the Tmax ([1]; hydroxycodone series, 5.0 mg/kg oral, median value) was 2 h, the AUC [2, 10] was 238 ng·h/mL and the AUC(0-inf) [2, 10] was 263 ng·h/mL. For the same compound, the MRT last [2, 10] was 0.905 h, the clearance [2, 10] was 63.3 ± 2.99 mL/min/kg and the Cmax [2, 10] was 489 ± 26.5 ng/mL. The half-life ([2]; hydroxycodone series, 1 mg/kg IV, Mean ± SD, read-out: T1/2(z)) was 1.45 ± 0.0542 h, the Vd [2, 10] was 5.31 ± 0.139 L/kg and the Emax [3] was 101%. For the same compound, the EC50 [3] was 7.45 µM, the “injection lever responses (% ILR)” value [4] was “only food lever responses” and the Ki [5] was 1.61 µM. For the same compound, the “Straub Tail, fold difference relative to parent compound” value ([6]; PO, 1/2 responding) was 30 fold, the “Loss Pinna, fold difference relative to parent compound” value ([6]; PO, 2/2 responding) was 30 fold and the “Muscle Rigidity, fold difference relative to parent compound” value ([6]; PO, 2/2 responding) was 30 fold. The “Straub Tail, fold difference relative to parent compound” value ([6]; PO, 2/2 responding) was 100 fold, the “Muscle Rigidity, fold difference relative to parent compound” value ([6]; SC, 1/2 responding) was >300 fold and the “Straub Tail, fold difference relative to parent compound” value ([6]; SC, 1/2 responding) was 10 fold. The “Loss Pinna, fold difference relative to parent compound” value ([6]; SC, 2/2 responding) was 100 fold, the “Muscle Rigidity, fold difference relative to parent compound” value ([6]; SC, 2/2 responding) was 30 fold and the “Straub Tail, fold difference (reduction in CNS activity) relative to parent compound” value ([6]; SC, 2/2 responding) was 10 fold.
With `COCCOCCOCCOCCOCCOC1C=CC2C3Cc4ccc(OC)c5c4C2(CCN3C)C1O5` (stereo not drawn) [α-6-mPEG5-O-codeine] the AUC ([1]; po, 5 mg/kg) was 91.8 ng·h/mL, the AUC(0-inf) ([1]; po, 5 mg/kg) was 98.2 ng·h/mL and the MRT last ([1]; po, 5 mg/kg) was 1.8 h. It also gave a bioavailability ([1]; po, 5 mg/kg) of 10.1%, a Cmax ([1]; po, 5 mg/kg) of 48.7 ± 10.8 ng/mL and a half-life ([1]; po, 5 mg/kg, read-out: T1/2(2)) of 2.08 ± 1.06 h. It also gave a Tmax ([1]; po, 5 mg/kg) of 0.25 h, an AUC ([2]; iv, 1 mg/kg) of 192 ng·h/mL and an AUC(0-inf) ([2]; iv, 1 mg/kg) of 195 ng·h/mL. It also gave an MRT last ([2]; iv, 1 mg/kg) of 0.53 h, a clearance ([2]; iv, 1 mg/kg) of 86.2 ± 7.04 mL/min/kg and a Cmax ([2]; iv, 1 mg/kg) of 533 ± 38.9 ng/mL. For the same compound, the half-life ([2]; iv, 1 mg/kg, read-out: T1/2(2)) was 0.712 ± 0.0593 h, the Vd ([2]; iv, 1 mg/kg) was 2.95 ± 0.157 L/kg and the Emax [7] was 60%. It also gave an Emax [3] of 95%, a Ki [8] of 59.1 µM and a Ki [5] of 2.43 µM.
Work on `COCCOCCOCCOCCOC1C=CC2C3Cc4ccc(OC)c5c4C2(CCN3C)C1O5` (stereo not drawn) [α-6-mPEG4-O-codeine] yielded an AUC ([1]; po, 5 mg/kg) of 42.2 ng·h/mL, an AUC(0-inf) ([1]; po, 5 mg/kg) of 44.5 ng·h/mL and an MRT last ([1]; po, 5 mg/kg) of 1.4 h. For the same compound, the bioavailability ([1]; po, 5 mg/kg) was 3.47%, the Cmax ([1]; po, 5 mg/kg) was 31.1 ± 13.1 ng/mL and the half-life ([1]; po, 5 mg/kg, read-out: T1/2(2)) was 1.97 ± 1 h. The Tmax ([1]; po, 5 mg/kg) was 0.25 h, the AUC ([2]; iv, 1 mg/kg) was 253 ng·h/mL and the AUC(0-inf) ([2]; iv, 1 mg/kg) was 257 ng·h/mL. The MRT last ([2]; iv, 1 mg/kg) was 0.458 h, the clearance ([2]; iv, 1 mg/kg) was 65.9 ± 10.4 mL/min/kg and the Cmax ([2]; iv, 1 mg/kg) was 746 ± 70 ng/mL. The half-life ([2]; iv, 1 mg/kg, read-out: T1/2(2)) was 0.952 ± 0.73 h, the Vd ([2]; iv, 1 mg/kg) was 2.3 ± 0.72 L/kg and the Emax [3] was 99%. For the same compound, the EC50 [3] was 22.1 µM, the Ki [8] was 97 µM and the Ki [5] was 2.89 µM.
Compound `COCCOCCOCCOCCOCCOCCOC1C=CC2C3Cc4ccc(OC)c5c4C2(CCN3C)C1O5` (stereo not drawn) [α-6-mPEG6-O-codeine] has an Emax [7] of 21%, an Emax [3] of 80% and an EC50 [3] of 97.4 µM. The Ki [8] was > 160 µM and the Ki [5] was 14.2 µM.
